“And” between values parts separate entries of the source, which are not always exact repeats. Identical values can stand only once.
What was measured:
[1] = tested on: subjects with idiopathic PD with LIDs
Excerpt: (§1) This post hoc analysis was inclusive of patients having baseline scores of […] for each of UPDRS Part II Question 13, Part II Question 14, and Part III Item 30.
(§2) The original UPDRS scale was used. […] In the UPDRS Part II, Question 13 is on Falling unrelated to Freezing. […] In Part II, Question 14 is on Freezing when Walking. This is a 5-point item and has two variables freezing and falls. […] Questions 13 and 14 were compared separately (Table 11).
For falls (UPDRS Part II, Question 13), a 5-point scale was used: 0: No falls to 4: falls more than once per day. For FOG and falls related to FOG (Question 14), a 5-point scale was used: 0: No FOG to 3 or 4: frequent falls from FOG. […] Analysis utilized Fisher's exact 2-tailed test. Improvement or worsening over baseline was calculated from the last treatment visit (Table 11).
Question 14—Freezing of Walking • 0=None; • 1=Rare freezing when walking, may have start hesitation; • 2=Occasional freezing when walking; • 3=Frequent freezing, occasionally falls from freezing; • 4=Frequent falls from freezing.
For the purposes of this alternative post hoc analysis, only patients having a screening or baseline score of 2 or more, i.e., occasional freezing when walking or occasional falls, less than once per day, were considered to have experienced episodes of freezing and/or falling. Additionally, scores of patients with a screening or baseline score of 1 were set to 0, i.e., no freezing when walking or no falls. All patients were included in the analysis regardless of their status during the study, with the last observation carried forward.

[2] = tested on: subjects with idiopathic PD with LIDs; remark: listed apart in the source
Method: (§3) At the time the study was performed (2009), there was no FDA accepted instrument for measuring treatment efficacy for LIDs. Therefore, several secondary objectives were utilized to assess efficacy including the Unified Dyskinesia Rating Scale (UDysRS).
A total of 65 male and female subjects with idiopathic PD with LIDs were randomized in the study. The study consisted of 4 phases (FIG. 6A): screening phase (up to 3 weeks), double-blind treatment phase (10 weeks), taper phase (2 weeks), and follow-up phase (2 weeks). The approximate duration of the study for each subject was 17 weeks. […] During the double-blind treatment phase, dosing was begun at Visit 0 at 1 mg every 6 hours (total daily dose [TDD]=4 mg/day) and escalated upwards at 2-week intervals as follows: 2 mg every 6 hours (TDD=8 mg/day) at Visit 1 (Week 2); 4 mg every 6 hours (TDD=16 mg/day) at Visit 2 (Week 4); 6 mg every 6 hours (TDD=24 mg/day) at Visit 3 (Week 6). Subjects were maintained on 24 mg/day for 4 weeks. The subsequent taper phase (2 weeks total), beginning at Visit 4 (Week 10), consisted of 9 days of drug taper and 5 days off drug prior to Visit 5 (final safety visit). […] Ondansetron was provided by the sponsor and dispensed with each dose escalation step with instructions to use it for nausea and vomiting only during the first 4 days following dose initiation or escalation. […] No other dose down-titration was allowed.
Efficacy was measured with the Unified Dyskinesia Rating Scale (UDysRS), a semi-quantitative assessment, FDA-validated instrument to assess […] dyskinesia in PD. […] Dosing was begun at 1 mg every 6 hours to a final dose of 24 mg per day. Patients who tolerated a total daily dose of at least 16 mg per day continued in the study.
Subjects were maintained on 24 mg/day for 4 weeks. The subsequent taper phase (2 weeks total), beginning at visit 4 (Week 10), consisted of 9 days of drug taper and 5 days off drug prior to Visit 5 (final safety visit). […] No other down-titration was allowed.
LIDs were assessed by the UDysRS, the main measure of LIDs (Table 12). […] The study was conducted in accordance with the Declaration of Helsinki and Good Clinical Practice Guidelines. All sites received approval from an institutional review board and written informed consent was obtained from each patient prior to participation.

[3] = tested on: subjects with idiopathic PD with LIDs; remark: listed apart in the source
Method: as §3

[4] = tested on: subjects with idiopathic PD with LIDs; remark: listed apart in the source
Excerpt: as §1, §2
This post hoc analysis was inclusive of patients having screening and/or baseline scores of greater than 0 for each of UPDRS Part II Question 13, Part II Question 14, and Part III Item 30.

[5] = baseline to week 10, of 30 patients
[6] = baseline to week 10, of 30 patients, negative = improvement

In the case of `CN1CCCC1c1cccnc1.O=C(O)C(O)C(O)C(=O)O` (centres unmarked) [NP002, Nicotine Bitartrate], the “improvement in freezing vs placebo at week 10” value ([1]; Question 14 score of 2 or greater at screening or baseline, Cochran-Mantel-Haenszel p=0.0476) is reported as “statistically significant improvement in freezing”, the “patients with either a reduction or absence of FOG” value ([1]; active phase of the study) is reported as roughly 73% and the “FOG (Question 14): patients with No Change” value [1, 5] is reported as 17. The “FOG (Question 14): patients with change +1” value [1, 5] was 1, the “FOG (Question 14): patients with change +2” value [1, 5] was 0 and the “FOG (Question 14): patients with change +3” value [1, 5] was 0. For the same molecule, the “FOG (Question 14): patients with change −1” value [1, 5] was 10, the “FOG (Question 14): patients with change −2” value [1, 5] was 2 and the “FOG (Question 14): patients with change −3” value [1, 6] was 0. For the same molecule, the “patients with no FOG during the study” value ([1]; number of 30 patients) was 10, the “patients with a reduction in FOG” value ([1]; of 30 patients, p=0.004 vs placebo) was 40% and the “Study discontinuation, primary reason adverse event, n (%)” value ([2]; 35 randomized) was 6 n (%) and 6 (17.1) n (%). For the same molecule, the Constipation ([2]; N = 35) was 5 (14.3) n (%), the Diarrhea ([2]; N = 35) was 2 (5.7) n (%) and the Dizziness ([2]; N = 35) was 7 (20.0) n (%). The Fatigue ([2]; N = 35) was 3 (8.6) n (%), the Headache ([2]; N = 35) was 2 (5.7) n (%) and the Insomnia ([2]; N = 35) was 0 (0.0) n (%). The Nausea ([2]; N = 35) was 13 (37.1) n (%), the Nightmare ([2]; N = 35) was 2 (5.7) n (%) and the “Number (%) of subject with any AE” value ([2]; N = 35) was 26 (74.3) n (%). The Pain ([2]; N = 35) was 3 (8.6) n (%), the Pain in extremity ([2]; N = 35) was 2 (5.7) n (%) and the Tremor ([2]; N = 35) was 2 (5.7) n (%). The Vomiting ([2]; N = 35) was 4 (11.4) n (%), the “Subjects who required dose reduction or discontinuation of study treatment, n (%)” value ([2]; because of adverse events, 35 randomized) was 7 (20.0) n (%) and the serum cotinine levels ([2]; compliance check) was “paralleled dosing of nicotine”. The “most frequent adverse event” value ([2]; in vivo) was “nausea”, the “number of adverse events reported” value ([2]; in vivo) was 45 and the “overall safety and tolerability” value ([2]; oral 4 times/day up to 24 mg/day, 10 weeks) was “safe and well tolerated, other than nausea”. For the same molecule, the “PGI-C responders (score of 1, 2, or 3)” value ([3]; Visit 4 (Week 10), p=0.0048 vs placebo) was 21 (77.8%), the “LF-ADL responders (>25% reduction from baseline), vs placebo” value ([3]; Visit 4 (Week 10), p=0.0453) was “statistically significant difference between treatment groups” and the “patient- and physician-rated assessments of efficacy vs placebo” value ([3]; in vivo) was “superior to placebo on ALL patient- and physician-rated assessments of efficacy”. The “Pull Test (Item 30): patients with No Change” value [4, 5] was 19, the “Pull Test (Item 30): patients with change +1” value [4, 5] was 1 and the “Pull Test (Item 30): patients with change +2” value [4, 5] was 0. The “Pull Test (Item 30): patients with change +3” value [4, 5] was 0, the “Pull Test (Item 30): patients with change −1” value [4, 5] was 5 and the “Pull Test (Item 30): patients with change −2” value [4, 5] was 5. For the same molecule, the “Pull Test (Item 30): patients with change −3” value [4, 6] was 0 and the “patients with improvement in postural stability (pull test)” value ([4]; patients with screening and/or baseline score >0, p=0.054 vs placebo) was 9 of 24.

— patent publication US20190307740A1, “COMPOSITIONS AND METHODS FOR TREATMENT RELATED TO FALL AND FALL FREQUENCY IN NEURODEGENERATIVE DISEASES” (Neurocea, LLC, priority 2016, published 2019)
